Measurements taken from patent US20120322661A1, “Organized Liquid Mixture” (priority 2010, published 2012).

Assay: Conductivity measurement for micellar entrapment of fomesafen sodium
Format: physicochemical
Details: aqueous solution
Protocol: A series of the experiments were conducted to establish that a combination of a sorbitan ester alkoxylate with a vegetable oil ethoxylate provided a stable micellar solubilization of the water soluble herbicide fomesafen sodium. Studies were also designed to confirm that the fomesafen sodium present within the formulation was partitioned between the micro-domains of the aqueous phase and the micellar oil phase.
The conductivity of an aqueous solution of fomesafen sodium was measured at different concentrations of fomesafen sodium. The results were plotted on a graph with measured conductivity plotted on Y-axis and the corresponding concentration on the X-axis. It was observed that the conductivity increased with the salt concentration and dropped suddenly above 0.45 g/L. It is believed that at this inflection concentration, fomesafen sodium self-aggregated to form an aggregated structure.
In another series of experiments, the formulations according to the present invention exemplified by examples 1 and 2 were tested at various concentrations of fomesafen sodium active ingredients and the resulting conductivity was measured. The results were plotted on a graph with measured conductivity plotted on Y-axis and the corresponding concentration on the X-axis. […]

Question: Which “Concentration above which conductivity dropped suddenly (inflection concentration, self-aggregation)” value does the source give for `CS(=O)(=O)N=C([O-])c1cc(Oc2ccc(C(F)(F)F)cc2Cl)ccc1[N+](=O)[O-].[Na+]` [fomesafen sodium, sodium (EZ)-5-(2-chloro-α,α,α-trifluoro-p-tolyloxy)-N-mesyl-2-nitrobenzenecarboximidate] here?
Answer: Its value is “above 0.45 g/L”.
